Legend:
[1] = Chemical stability in phosphate buffer solution (spontaneous hydrolysis), LC-MS/MS; assay type: physicochemical; conditions: phosphate buffer solution (PBS), 1 µM analyte, 37 °C, incubation 0-120 min, read-out: T 1/2 PBS
Procedure: (§1) The sample was prepared adding 10 µL of spiked solution to 100 µL of tested matrix (PBS or human plasma or rat plasma) in microcentrifuge tubes. The obtained solutions correspond to 1 µM of analyte.
(§2) Each set of samples was incubated in triplicate at four different times, 0, 30, 60, and 120 min at 37 °C. Therefore, the matrix stability profile of each analyte was represented by a batch of 12 samples (4 incubation times ×3 replicates). After the incubation, the samples were added with 300 µL of ISTD solution and centrifuged (room temperature for 5 min at 800 g). The supernatants were transferred in autosampler vials and dried under a gentle stream of nitrogen.
(§3) The dried samples were dissolved in 1.0 mL of 10 mM of formic acid in mQ water:acetonitrile 80:20 solution[28].
(§4) An investigation on the chemical stability of compounds under study in PBS, human and rat plasma was performed for evaluating their susceptibility to spontaneous or enzymatic hydrolysis.
(§5) The stability profiles were obtained by monitoring the variation of analyte concentration at different incubation times in PBS or human or rat plasma samples. Generally, when the substrate concentration was smaller than the Michaelis–Menten constant (KM), the enzymatic degradation rate is described to a first-order kinetics. Therefore, plotting the natural logarithm of the quantitative data versus the incubation time, a linear function can be used and its slope represents the degradation rate constant (k).
(§6) All degradation plots of references and studied compounds were reported in the Supplemental material (SF11–SF26). The half-life of each tested compound was calculated as follows: (4) […]

[2] = Stability in human plasma (enzymatic hydrolysis), LC-MS/MS; assay type: in vitro ADME; conditions: 1 µM analyte, 37 °C, incubation 0-120 min; for half-life at 1 µM: male, read-out: T 1/2 Human plasma
Procedure: (§7) PBS was prepared by adding 8.01 g L^−1 of NaCl, 0.2 g L^−1 of KCl, 1.78 g L^−1 of Na2HPO4·2H2O, and 0.27 g L^−1 of KH2PO4. Human plasma was collected from healthy volunteer and the rat plasma was collected from Sprague-Dawley male rats; each plasma batch was kept at −80 °C until use.
as §1
as §2, with “Therefore,” for “Each set of samples was incubated in triplicate at four different times, 0, 30, 60, and 120 min at 37 °C. Therefore,”
as §3, §4, §5

[3] = Stability in rat plasma (enzymatic hydrolysis), LC-MS/MS; assay type: in vitro ADME, Sprague-Dawley male rats; conditions: male, Sprague-Dawley, 1 µM analyte, 37 °C, incubation 0-120 min, read-out: T 1/2 Rat plasma
Procedure: as §7, §1, §2, §3, §4
In order to establish the hydrolytic activity of the employed plasma batches, two reference compounds were tested, following the procedure reported in the section ‘Validation of LC-MS/MS methods’: KEE (half-life <2 h) and enalapril (half-life <0.5 h) to verify the human and rat plasma activity, respectively[32]^,[33].
as §5, §6

[4] = design: method as in PMID 28238510, PMID 28113128; conditions: cited from earlier work
[5] = design: method as in PMID 28238510, PMID 28113128; conditions: cited from earlier work; remark: listed apart in the source

Row | SMILES | half-life at 1 µM [1] | half-life at 1 µM [2] | half-life at 1 µM [3] | T 1/2 Human plasma [2] | half-life (reference compound to verify human plasma activity) [4] | half-life (reference compound to verify rat plasma activity) [5]
1 | CC1=C(CC(=O)NCCOc2ccc3ccc(=O)oc3c2)c2cc(F)ccc2/C1=C\c1ccc([S+](C)[O-])cc1 (stereo not shown) [Compound 2B] | > 4 h | > 4 h | > 4 h | – | – | –
2 | CC(C(=O)NCCOc1ccc2ccc(=O)oc2c1)c1cccc(C(=O)c2ccccc2)c1 (stereo not shown) [Compound 3B] | > 4 h | > 4 h | > 4 h | – | – | –
3 | CC(C)Cc1ccc(C(C)C(=O)NCCOc2ccc3ccc(=O)oc3c2)cc1 (stereo not shown) [Compound 4B] | > 4 h | > 4 h | > 4 h | – | – | –
4 | COc1ccc2c(c1)c(CC(=O)NCCOc1ccc3oc(=O)ccc3c1)c(C)n2C(=O)c1ccc(Cl)cc1 [Compound 1A] | > 4 h | > 4 h | > 4 h | – | – | –
5 | COc1ccc2c(c1)c(CC(=O)NCCOc1ccc3ccc(=O)oc3c1)c(C)n2C(=O)c1ccc(Cl)cc1 [Compound 1B] | > 4 h | > 4 h | > 4 h | – | – | –
6 | CCOC(=O)C(C)c1cccc(C(=O)c2ccccc2)c1 (stereo not shown) [KEE, Ketoprofen ethyl ester, reference compound] | – | – | – | 1.58 h | < 2 h | –
7 | CC(C(=O)NCCOc1ccc2oc(=O)ccc2c1)c1cccc(C(=O)c2ccccc2)c1 (stereo not shown) [Compound 3A] | > 4 h | > 4 h | > 4 h | – | – | –
8 | CC(C)Cc1ccc(C(C)C(=O)NCCOc2ccc3oc(=O)ccc3c2)cc1 (stereo not shown) [Compound 4A] | > 4 h | > 4 h | > 4 h | – | – | –
9 | O=C(Cc1ccccc1Nc1c(Cl)cccc1Cl)NCCOc1ccc2ccc(=O)oc2c1 [Compound 5B] | > 4 h | > 4 h | > 4 h | – | – | –
10 | CC1=C(CC(=O)NCCOc2ccc3oc(=O)ccc3c2)c2cc(F)ccc2/C1=C\c1ccc([S+](C)[O-])cc1 (stereo not shown) [Compound 2A] | > 4 h | > 4 h | > 4 h | – | – | –
11 | O=C(Cc1ccccc1Nc1c(Cl)cccc1Cl)NCCOc1ccc2oc(=O)ccc2c1 [Compound 5A] | > 4 h | > 4 h | > 4 h | – | – | –
12 | CCOC(=O)[C@H](CCc1ccccc1)N[C@@H](C)C(=O)N1CCC[C@H]1C(=O)O [Enalapril, enalapril, reference compound] | – | – | 0.367 h | – | – | < 0.5 h

More lines, main results first:

Row | half-life at 1 µM [1] | half-life at 1 µM [2] | half-life at 1 µM [3] | T 1/2 Human plasma [2] | SMILES | half-life (reference compound to verify human plasma activity) [4] | half-life (reference compound to verify rat plasma activity) [5]
13 | > 4 h | > 4 h | > 4 h | – | O=C(c1ccccc1)c1ccc2n1CCC2C(=O)NCCOc1ccc2oc(=O)ccc2c1 (stereo not shown) [Compound 7A] | – | –
14 | > 4 h | > 4 h | > 4 h | – | O=C(c1ccccc1)c1ccc2n1CCC2C(=O)NCCOc1ccc2ccc(=O)oc2c1 (stereo not shown) [Compound 7B] | – | –
15 | > 4 h | > 4 h | > 4 h | – | CC(C(=O)NCCOc1ccc2oc(=O)ccc2c1)c1ccc(-c2ccccc2)c(F)c1 (stereo not shown) [Compound 6A] | – | –
16 | > 4 h | > 4 h | > 4 h | – | COc1ccc2cc(C(C)C(=O)NCCOc3ccc4ccc(=O)oc4c3)ccc2c1 (stereo not shown) [Compound 8B] | – | –
17 | > 4 h | > 4 h | > 4 h | – | COc1ccc2cc(C(C)C(=O)NCCOc3ccc4oc(=O)ccc4c3)ccc2c1 (stereo not shown) [Compound 8A] | – | –
18 | > 4 h | > 4 h | > 4 h | – | CC(C(=O)NCCOc1ccc2ccc(=O)oc2c1)c1ccc(-c2ccccc2)c(F)c1 (stereo not shown) [Compound 6B] | – | –
